Counter-ions that a name gives are not always drawn.

Experimental findings from patent US7226915B2, “Diaminopyrroloquinazolines compounds as protein tyrosine phosphatase inhibitors” (Hoffmann-La Roche Inc., priority 2003, dated 2007) are described below.

For the experiment, the target named is T1, Human PTP1B (1-321) (Homo sapiens, UniProt P18031).
T1 construct: Human PTP1B (1-321) was cloned from a human cDNA library; made in house; host or cells: E. coli
T1 sequence (P18031 1-321): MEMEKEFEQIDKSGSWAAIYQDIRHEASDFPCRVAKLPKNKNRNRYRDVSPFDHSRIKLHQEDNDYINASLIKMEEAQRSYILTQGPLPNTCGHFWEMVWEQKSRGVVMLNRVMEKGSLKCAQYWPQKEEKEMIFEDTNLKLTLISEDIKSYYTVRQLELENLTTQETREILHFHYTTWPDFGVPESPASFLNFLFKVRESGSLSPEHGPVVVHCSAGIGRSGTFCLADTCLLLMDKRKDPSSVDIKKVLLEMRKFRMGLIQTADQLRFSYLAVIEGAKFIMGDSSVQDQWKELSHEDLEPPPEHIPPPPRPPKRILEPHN
Description: In vitro inhibition of PTP1B (PTPase assay). It is filed as biochemical. The following applies: one of two methods: phosphopeptide substrate TRDI(pY)E with Malachite Green, or DiFMUP fluorescence; pH 6.2; read-out: IC50 (PTP1B inhibitory activity). The procedure: Human PTP1B (1-321) was cloned from a human cDNA library using conventional molecular biology techniques. The cDNA sequence was identical to the published human PTP1B sequence (Accession number M33689). The protein was expressed and purified from E. coli as described by Barford D. et. al J. Mol Biol (1994) 239, 726–730.
The measurement of PTPase activity was carried out using one of two methods:
The first method for the measurement of PTP1B inhibitory activity a tyrosine phosphorylated peptide based on the amino acid sequence of insulin receptor tyrosine autophosphorylation site 1146 (TRDI(pY)E) was used as substrate. The reaction conditions were as follows:
PTP1B (0.5–2 nM) was incubated with compound for 15 min in buffer containing 37.5 mM Bis-Tris buffer pH 6.2, 140 mMNaCl, 0.05% BSA and 2 mM DTT. The reaction was started by the addition of 50 μM substrate. After 20 min at room temperature (22–25° C.), the reaction was stopped with KOH and the amount of free phosphate measured using Malachite Green as previously described (Harder et al. 1994 Biochem J. 298; 395).
The second method was used for the measurement of general PTPase inhibitory activity across a panel of PTPases the substrate (6,8-difluoro-4-methylumbelliferyl phosphate (DiFMUP; from Molecular Probes) was used at the Km for each enzyme. The buffer conditions were identical as in the Malachite Green assay. The reaction was stopped with KOH. In this case the dephosphoryated product becomes fluorescent and the fluorescense read (Excitiation:360 mM/Emmission: 460 nM).

Usually IC50 stands for the concentration at which inhibition is half-maximal. Consider `Cc1ccc(-c2cc3nc(N)nc(NCCO)c3c3ccn(C)c23)s1` [Example 2, 2-[3-Amino-7-methyl-6-(5-methyl-thiophen-2-yl)-7H-pyrrolo[3,2-f]quinazolin-1-ylamino]-ethanol trifluoro-acetic acid salt], for which the IC50 was found to be 7.1 µM.
The result for `CN(C)c1nc(N)nc2cc(-c3ccccc3C(F)(F)F)c3c(ccn3C)c12` [Example 4, 7,N1,N1-Trimethyl-6-(2-trifluoromethyl-phenyl)-7H-pyrrolo[3,2-f]quinazoline-1,3-diamine trifluoro-acetic acid salt] reads 9.47 µM; that for `Cn1ccc2c3c(NCCCO)nc(N)nc3cc(-c3ccccc3C(F)(F)F)c21` [Example 6, 3-[3-Amino-7-methyl-6-(2-trifluoromethyl-phenyl)-7H-pyrrolo[3,2-f]quinazolin-1-ylamino]-propan-1-ol trifluoro-acetic acid salt], 10.2 µM; that for `Nc1nc(NCCO)c2c(cc(-c3ccccc3C(F)(F)F)c3c2ccn3CCO)n1` [Example 8, 2-[3-Amino-7-(2-hydroxy-ethyl)-6-(2-trifluoromethyl-phenyl)-7H-pyrrolo[3,2-f]quinazolin-1-ylamino]-ethanol trifluoro-acetic acid salt], 11.3 µM.
